Data taken from publication PMC4728427, “Mechanism of allosteric activation of TMEM16A/ANO1 channels by a commonly used chloride channel blocker” (British Journal of Pharmacology, 2016).
pKi: −log10 of the molar value.

How the values were obtained:
Mouse TMEM16A [1] = biological target: T1, Mouse TMEM16A (Mus musculus, UniProt Q8BHY3); assay: Stationary noise analysis of whole-cell TMEM16A currents; format: cell-based; settings: +70 mV, 12.5 μM [Ca2+]i; for P o: control 0.78 ± 0.02
T1 construct: expressed in transfected cells; host or cells: HEK-293T
T1 sequence (Q8BHY3 1-960): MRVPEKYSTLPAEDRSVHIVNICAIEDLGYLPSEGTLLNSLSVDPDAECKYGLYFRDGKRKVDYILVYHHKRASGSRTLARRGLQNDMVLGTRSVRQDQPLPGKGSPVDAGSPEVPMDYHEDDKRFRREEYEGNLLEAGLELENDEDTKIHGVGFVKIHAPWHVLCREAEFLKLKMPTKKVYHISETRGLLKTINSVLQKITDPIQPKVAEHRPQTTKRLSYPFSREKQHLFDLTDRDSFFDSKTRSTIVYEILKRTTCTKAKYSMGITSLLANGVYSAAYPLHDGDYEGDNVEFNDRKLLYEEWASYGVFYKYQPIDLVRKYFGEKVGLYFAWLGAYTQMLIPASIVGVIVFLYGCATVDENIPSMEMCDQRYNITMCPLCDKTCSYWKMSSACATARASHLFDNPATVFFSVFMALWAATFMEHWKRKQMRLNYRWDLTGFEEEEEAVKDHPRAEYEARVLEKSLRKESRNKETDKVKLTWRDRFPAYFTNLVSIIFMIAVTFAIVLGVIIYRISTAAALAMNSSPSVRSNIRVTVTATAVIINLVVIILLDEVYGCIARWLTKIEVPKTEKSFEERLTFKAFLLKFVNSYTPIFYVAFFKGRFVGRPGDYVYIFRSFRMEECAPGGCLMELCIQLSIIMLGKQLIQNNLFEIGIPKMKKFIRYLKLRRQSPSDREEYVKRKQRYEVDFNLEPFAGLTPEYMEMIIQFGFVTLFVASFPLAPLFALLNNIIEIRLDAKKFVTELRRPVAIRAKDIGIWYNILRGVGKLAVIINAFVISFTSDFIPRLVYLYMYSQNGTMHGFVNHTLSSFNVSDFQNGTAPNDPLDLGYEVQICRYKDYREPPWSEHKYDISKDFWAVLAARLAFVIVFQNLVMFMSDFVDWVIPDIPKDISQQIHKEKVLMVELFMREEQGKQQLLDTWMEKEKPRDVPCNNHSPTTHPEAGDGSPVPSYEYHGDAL
Experimental: For non‐stationary noise analysis (Heinemann and Conti, 1992; Tammaro and Ashcroft, 2007), 80–200 identical pulses to a test potential of −70 mV (filtered at 10 kHz and sampled at 50 kHz) were applied, and the mean response, I, was calculated. The variance, σ ^2, was computed from the average squared difference of consecutive traces. Background variance and current at 0 mV were subtracted, and the variance–mean plot was fit by (4) σ^2=iI−I^2/N,
with the single channel current, i, and the number of channels, N, as free parameters.
TMEM16A channels are almost instantaneously activated by changes in V m in the presence of high [Ca^2+]i (12.5 μM) (e.g. Adomaviciene et al., 2013). The lack of slow time‐dependent changes in current amplitude under these conditions makes non‐stationary noise analysis unfeasible. Thus, for experiments carried out in high [Ca^2+]i, stationary noise analysis was performed instead. In the absence or presence of a fixed [A9C]ext, 10 tracts (each 600 ms in duration) of stationary currents measured at +70 mV were low‐pass filtered at 10 kHz and sampled at 50 kHz. For each tract of current, the variance and mean were calculated. The variance–mean plots obtained in the absence and presence of various [A9C]ext were fitted simultaneously with Equation (4).
Stationary noise analysis was used to determine if A9C block manifests as a change in i and/or P o of TMEM16A. Experiments were conducted in the presence of 12.5 μM [Ca^2+]i to enable examination of the effect of A9C block in the absence of A9C‐mediated activation. Mean current and variance were measured in tracts of stationary currents recorded in the absence or presence of different [A9C]ext.
With this assumption in mind, the variance–mean plots were fitted with Equation (4) (Figure 4C). The fits yielded a single value of i of 0.27 ± 0.04 pA (n = 5). P o values arising from the fits were 0.78 ± 0.02 for control (n = 5), 0.30 ± 0.08 at 100 μM [A9C]ext (n = 5) and 0.04 ± 0.01 at 1000 μM [A9C]ext (n = 5) (Figure 4D).

Mouse TMEM16A [2] = biological target: T1, Mouse TMEM16A; assay: Concentration jump in excised inside-out or outside-out patches, 300 nM [Ca2+]i; format: cell-based; settings: +70 mV
Experimental: TMEM16A currents were measured with the whole‐cell or inside‐out patch configuration of the patch‐clamp technique as detailed in the Supporting Information. The exchange of solutions was achieved by using a local perfusion system consisting of eight tubes of 1.2 mm diameter in which the tip of the patch pipette was inserted. In some experiments, ultra‐rapid (<50 ms) changes in A9C concentration ([A9C]) (‘concentration jumps’) were achieved using a computer‐controlled perfusion system (Warner Instruments, Hamden, CT, USA).
To examine if intracellular A9C produced an activating effect on TMEM16A currents, concentration jump experiments were performed in the inside‐out configuration of the patch‐clamp technique, with A9C applied intracellularly and in the presence of 300 nM [Ca^2+]i. […] For example, I a/I 0 in the presence of 3000 μM intracellular A9C during inside‐out patches was 1.3 ± 0.1 (n = 5), while extracellular A9C produced a I a/I 0 of 27 ± 4 (n = 5) in outside‐out patches (Figure 6).

Xenopus laevis TMEM16A = settings: +80 mV, ref Reyes et al. (2015); cited from earlier work
[3] = system: native CaCCs in rabbit pulmonary artery smooth muscle cells; settings: cited from earlier work

P o (Mouse TMEM16A [1]; 100 μM [A9C]ext): 0.30 ± 0.08
P o (Mouse TMEM16A [1]; 1000 μM [A9C]ext): 0.04 ± 0.01
single channel current i (Mouse TMEM16A [1]; single value from simultaneous fit in absence and presence of [A9C]ext): 0.27 ± 0.04 pA
I a/I 0 (current activation) (Mouse TMEM16A [2]; 3000 μM extracellular A9C, outside-out patches): 27 ± 4
I a/I 0 (current activation) (Mouse TMEM16A [2]; 3000 μM intracellular A9C, inside-out patches): 1.3 ± 0.1
Structure (SMILES): O=C(O)c1c2ccccc2cc2ccccc12 [A9C, Anthracene‐9‐carboxylic acid]
pKi (Xenopus laevis TMEM16A): ~4.05
E rev of native CaCC currents ([3]; ref Piper and Greenwood (2003)): did not change
native CaCC tail current increase ([3]; −80 mV, 500 μM A9C, ref Piper and Greenwood, 2003): ~ 3 fold
